From ChEMBL document CHEMBL1128186, “Steroidal spiro-gamma-lactones that inhibit 17 beta-hydroxysteroid dehydrogenase activity in human placental microsomes” (J Med Chem, 1995)

Assay: The compound was tested at a concentration of 1 uM for inhibitory activity against 17 beta-hydroxysteroid dehydrogenase from human placental microsomes

Row | Structure (SMILES) | inhibition [%]
1 | C[C@]12CCC(=O)CC1CC[C@@H]1[C@@H]2CC[C@@]2(C)[C@H]1CC[C@@]21CCC(=O)O1 (some centres undefined) | 25
2 | C[C@]12CCC(=O)CC1C(=O)C[C@@H]1[C@@H]2CC[C@@]2(C)[C@H]1CC[C@@]21CCC(=O)O1 (some centres undefined) | 28
3 | C[C@]12CCC(=O)C=C1C(=O)CC1C2CC[C@@]2(C)C1CC[C@@]21CCC(=O)O1 (some centres undefined) | 3
4 | C[C@]12CC[C@@]3(CCC(=O)O3)CC1CC[C@@H]1[C@@H]2CC[C@@]2(C)[C@H]1CC[C@@]21CCC(=O)O1 (some centres undefined) | 11
5 | C[C@]12CCC(=O)C=C1CC[C@@H]1[C@@H]2CC[C@@]2(C)[C@H]1CC[C@@]21CCC(=O)O1 | 3
6 | C[C@]12CC[C@@H]3c4ccc(O)cc4CC[C@H]3[C@@H]1CC[C@@]21CCC(=O)O1 | 81

Results, then the molecule that gave them:

Row | inhibition [%] | Structure (SMILES)
7 | 11 | C[C@]12CC[C@@H]3c4ccc(OCc5ccccc5)cc4CC[C@H]3[C@@H]1CC[C@@]21CCC(=O)O1
8 | 55 | COc1ccc2c(c1)CC[C@@H]1[C@@H]2CC[C@@]2(C)[C@H]1CC[C@@]21CCC(=O)O1
9 | 6 | C[C@]12C=CC(=O)C=C1CCC1C2CC[C@@]2(C)C1CC[C@@]21CCC(=O)O1 (some centres undefined)
